Measurements reported in article PMC12801355, “Peptide Amphiphiles Hitchhike on Endogenous Biomolecules for Enhanced Cancer Imaging and Therapy” (Advanced Materials (Deerfield Beach, Fla.), 2025).
Where a SMILES comes first, the peptide text is derived from it. The star is where a group is joined. Palmitoyl = CCCCCCCCCCCCCCCC(=O)*

Legend:
[1] = Fluorescence polarization of PA nanostructures; format: physicochemical; conditions: 10 mol% ICG conjugated PA (20 µM) with unconjugated PA, 200 µM total, PBS; mean ± SEM, 3 wells
Description: ICG (10 mol%) containing PA micelles were prepared by mixing ICG‐conjugated PAs with unconjugated or MMAE‐conjugated PAs to achieve a final concentration of 20 µM ICG‐conjugated PAs and 200 µM of total PAs. Aliquots of 100 µL were added to a 96‐well plate (3 wells for each PA). Fluorescence polarization measurements were performed using a microplate reader (TECAN Spark 20 M). The corrected parallel intensity (I par) and perpendicular intensity (Iper) were used to calculate the fluorescence anisotropy (r) using the following equation: r = […].

[2] = TEM imaging of PA nanostructures; format: physicochemical; conditions: ICG conjugated PA, 200 µM in ultrapure water, uranyl acetate negative stain
Description: For TEM imaging, PAs conjugated with ICG, Cy5 or MMAE were dissolved in ultrapure water at a concentration of 200 µM. Carbonfilm 200 copper mesh TEM grids were glow‐discharged first. Then, PA solutions (15 µL) were placed on the grids, incubated for 10 min before blotting, and air‐dried. 15 µL of ultrapure water was applied to wash the grid for 3 min. After incubation, the water was removed by blotting from the edge of the grid. For negative staining of the samples, a 0.4% uranyl acetate solution was prepared in ultrapure water and filtered using a 0.1 µm syringe filter. 15 µL of filtered uranyl acetate solution was applied to the grid and incubated for 5 min. Finally, TEM grids were blotted to remove excess stain and dried at room temperature. TEM imaging was performed using a Tecnai or Talos microscope (FEI).

[3] = system: TRAMP‐C2 mouse prostate cancer cells; assay: Uptake of SA‐E by wild type or SR‐B1 knockout cells; format: cell-based; conditions: Cy5 SA‐E 20 µM, 10% FBS DMEM
Description: For SR‐B1 studies, an equal number of wells in a black walled, glass bottom 96‐well plate were seeded with either wild type or SR‐B1‐/‐ TRAMP‐C2 cells and grown to near confluency, as above. The Cy5 conjugated SA‐E was diluted in 10% FBS containing DMEM and incubated at room temperature for 30 min. All media from the wells was aspirated. Four wells of each cell type received 100 µL aliquots with SA‐E (20 µM). The plate was incubated for 30 min, as above. Following the methods above, wells were washed with PBS, media was added, and the plate was returned to the incubator for 1 h. Finally, Hoechst staining and fluorescence imaging were performed using a Leica Thunder DMi8 fluorescent microscope, as described above.

[4] = system: 4T1 mouse breast cancer cells; assay: Cellular uptake of Cy5 labeled PAs; format: cell-based; conditions: 10 µM Cy5‐PA, 2 h incubation at 37 °C
Description: To compare the uptake of SA‐E and SA‐K, 1 × 10^5 4T1 cells were grown to near confluency (1–2 days) in 96 well plates with black walls and flat glass bottom. 100% Cy5 conjugated PAs (20 or 10 µM) or 10% Cy5 conjugated PA micelles (10 µM Cy5‐PAs mixed with 90 µM maleimide blocked labeled PAs) were preincubated in 10% FBS containing RPMI for 30 min at 37 °C, wells were aspirated, and 100 µL of media containing PAs were added. The plate was incubated for 30 min for the experiments with 100% Cy5 conjugated PAs. Media were aspirated, wells were washed 3x with 150 µL sterile PBS, and then 100 µL RPMI containing 10% FBS was added to each well. The plate was incubated for 1 h at 37 °C. For 10% and 100% Cy5 micelle uptake comparison, plate was incubated for 2 h at 37 °C with PAs. Then, media containing PAs were aspirated and washed with PBS, as above. Cell nuclei were stained with Hoechst (1:5000 dilution in PBS) for 5 min and then removed. 100 µL of phenol red free RPMI containing 10% FBS was added to each well. […] The microscope incubator was preheated for 30 min to reach 35 °C prior to imaging.
To study the uptake of SA‐E or SA‐K micelles (10% or 100% Cy5 micelles) or No‐SA over time, 4T1 cells were grown to near confluency in a 96 well plate as described above. Cy5 conjugated 100% Cy5 conjugated PAs (20 µM), 10% Cy5 conjugated PAs (10 µM Cy5), or No‐SA (20 µM) or were preincubated in 10% FBS containing RPMI for 30 min at 37 °C. Cell nuclei were stained with Hoechst stain as above. Cell membranes were stained (CellBrite 488, 1:1000 in 10% FBS containing RPMI) for 30 min at 37 °C. Wells were aspirated, and 100 µL of PAs were added to the wells for ≈1 min. Wells were washed with sterile PBS (3x, 150 µL), and Confocal images were taken at different time points (up to 2 h) after PA or No‐SA addition as described above using a 60x objective.

[5] = ICG fluorescence in fractions of collected blood (plasma, WBC, RBC); format: in vivo; conditions: mouse blood 1 h after 50 nmol IV; average
Description: For these experiments, 100 µL of ICG conjugated SA‐E (0.5 mM) was intravenously injected into wild type (C57Bl/6J), ApoA1 ‐/‐, or LDL‐R ‐/‐ mice. One hour after injection blood was collected via cardiac puncture (500 µL) in EDTA containing tubes (BD MicroTainer Blood Collection Tube, 365974). To separate plasma, blood samples were centrifuged for 10 min at 1500 g, and supernatants were removed. Samples were centrifuged again for 10 min at 2500 g, and supernatants were stored at −20 °C for up to 5 days before use. For RBCs, 10 µL of the centrifugation pellet was separated and stored at −20 °C for up to 5 days before analysis. For WBCs, 100 µL of the remaining pellet was collected and combined with 2 mL Red Blood Cell Lysis Buffer (BioLegend, 420514). This mixture was allowed to incubate at room temperature for 15 min with occasional mixing. The solution was then centrifuged at 500 g for 5 min, the supernatant was removed, and the pellet was redissolved in 30 µL PBS, then stored at −20 °C for up to 5 days. […] For fluorescence measurements, 5 µL of samples were added to a 96 well plate, diluted to a total volume of 100 µL with PBS, and fluorescence was measured using a microplate reader (Tecan Spark 20 M).

[6] = Clearance study (urine and stool); format: in vivo, mouse; conditions: 50 nmol IV
Description: Six Balb/c mice were intravenously injected with 100 µL of either ICG‐conjugated SA‐E or PBS, with three mice in each group. Urine and stool samples were collected from each mouse at different time points up to 7 days. […] Urine from healthy Balb/c mice was collected and pooled to generate a calibration curve. Fluorescence of stool samples was detected using an IVIS (PerkinElmer).

[7] = system: RG2 xenografts; assay: Flow cytometry of mCherry expressing RG2 xenografts; format: in vivo, mouse; conditions: Cy5 SA‐E 50 nmol IV
Description: RG2‐mCherry cells (100 µL sterile DMEM, 0.5 × 10^7 cells mL^−1) were implanted subcutaneously in nude mice and allowed to grow to 0.5–1 cm. Mice were then injected intravenously with the Cy5 labeled SA‐E (100 µL, 0.5 mM). 2 days later, tumors were extracted, minced, and dissociated using 1 mg mL^−1 solution collagenase/dispase (Roche, 10269638001 and 11097113001) for 45 min at 37 °C. The solution was broken down with pipetting and filtered through a 70 µm filter. The single‐cell solution was suspended in sterile PBS (10 mM, pH 7.4) and then incubated with 1:50 dilution of AlexaFluor 488 Rat Anti‐Mouse CD45 antibody (BD Pharminogen, 567377) for 45 min at room temperature. Finally, the cells were pelleted and, washed and incubated with 5 µM Calcein Blue, AM (Invitrogen, C1429) for 20 min. The cells were then analyzed in BD FACSymphony in the DAPI channel (355 nm laser, 450/50 filter), FITC channel (488 nm laser, 515/30 filter), Cy3 channel (561 nm laser, 586/15 filter), and Cy5 channel (628 nm laser, 670/30 filter). Cells in culture were used to establish size and mCherry intensity. […] Finally, three experimental mice were analyzed in all channels using the gating established from the controls. Gating was performed in FlowJo software.

CCCCCCCCCCCCCCCC(=O)NCC(=O)NCC(=O)NCC(=O)N[C@@H](Cc1c[nH]cn1)C(=O)N[C@@H](C)C(=O)N[C@@H](C)C(=O)N[C@@H](CC(N)=O)C(=O)NCC(=O)N[C@@H](CCC(=O)O)C(=O)N[C@@H](CCC(=O)O)C(=O)N[C@@H](CS)C(=O)N[C@@H](CCC(=O)O)C(=O)O [SA‐E] (Palmitoyl-GGGHAANGEECE-OH)
fluorescence anisotropy of ICG in micelles [1]: 0.123 ± 0.006 | size of spherical micelles (TEM) [2]: 5–10 nm | uptake in SR‐B1‐/‐ cells compared to wild type [3]: did not observe any significant change | uptake of 10% Cy5 micelles relative to 100% Cy5 micelles [4]: no significant difference | share of fluorescence in blood plasma [5]: 98.9% | fluorescence in urine samples ([6]; any time point up to 7 days, plate reader): No fluorescence signal was detected | decline of ICG signal in stool ([6]; Balb/c mice, IVIS): mostly diminished at 2 days | time of peak ICG signal in stool ([6]; Balb/c mice, IVIS, n = 3): 6 h | CD45 and mCherry negative cells (tumor stroma) containing Cy5 ([7]; 2 days): 35%–40 | CD45 positive only (white blood cells) containing Cy5 ([7]; 2 days): 35%–40 | enrichment in cancer cells compared to other cells in the tumor ([7]; 2 days): approximately two‐fold | mCherry expressing cancer cells containing Cy5 ([7]; tumors harvested 2 days later, three mice): ≈ 70%
